Laboratory results reported in the NIST ThermoML archive (doi:10.1021/je300482b).

Test: xn = mol fraction of the nth substance listed
Conditions: Liquid, Vibrating tube method

CCCCCCCCCCCCCCCC [hexadecane] + CCCCCCCCCC
mass density [kg/m3]
Conditions	1000 kPa	2000 kPa	3000 kPa	4000 kPa	5000 kPa	6000 kPa	7000 kPa	8000 kPa	9000 kPa	10000 kPa
295 K, x2 = 0.25	760.6	761.3	762	762.6	763.3	764	764.6	765.3	765.9	766.6
295 K, x2 = 0.75	739.6	740.4	741.1	741.8	742.5	743.3	744	744.7	745.4	746.2
295.3 K, x2 = 0.5	751	751.7	752.4	753.1	753.8	754.5	755.1	755.8	756.5	757.2
